27 compounds from patent US8642657B2 (Gruenenthal GmbH, priority 2003, dated 2014) can be followed below.

Data set [1] concerns the target T1, rat VR1 (Rattus norvegicus, UniProt O35433).
T1 construct: expressed in transfected cells
The data set is described as follows: [3H]resiniferatoxin (RTX) competition binding assay, VR1-transfected CHO cells. The procedure, abridged:
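Competition with [3H]RTX (50-100 pM) ran 60 min at 37° C using whole VR1-induced CHO cells in BSA-containing DPBS, nonspecific defined by 100 nM cold RTX. After centrifugation, pellet radioactivity counted by scintillation; Hill fits gave Ki and cooperativity.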

Data set [2] concerns the target T1, rat VR1. Kind of data set: 45Ca2+-uptake assay in CHO/VR1 cells, antagonism of capsaicin-stimulated uptake. The class given is cell-based. As to conditions: 45Ca2+ uptake stimulated by 50 nM capsaicin.
The mark [3] stands for this setting: competition with [3H]RTX, rat VR1 in CHO cells, read-out: Ki (nM) Binding Affinity.

SMILES strings stand for the structures.

T1 sequence (O35433 whole entry): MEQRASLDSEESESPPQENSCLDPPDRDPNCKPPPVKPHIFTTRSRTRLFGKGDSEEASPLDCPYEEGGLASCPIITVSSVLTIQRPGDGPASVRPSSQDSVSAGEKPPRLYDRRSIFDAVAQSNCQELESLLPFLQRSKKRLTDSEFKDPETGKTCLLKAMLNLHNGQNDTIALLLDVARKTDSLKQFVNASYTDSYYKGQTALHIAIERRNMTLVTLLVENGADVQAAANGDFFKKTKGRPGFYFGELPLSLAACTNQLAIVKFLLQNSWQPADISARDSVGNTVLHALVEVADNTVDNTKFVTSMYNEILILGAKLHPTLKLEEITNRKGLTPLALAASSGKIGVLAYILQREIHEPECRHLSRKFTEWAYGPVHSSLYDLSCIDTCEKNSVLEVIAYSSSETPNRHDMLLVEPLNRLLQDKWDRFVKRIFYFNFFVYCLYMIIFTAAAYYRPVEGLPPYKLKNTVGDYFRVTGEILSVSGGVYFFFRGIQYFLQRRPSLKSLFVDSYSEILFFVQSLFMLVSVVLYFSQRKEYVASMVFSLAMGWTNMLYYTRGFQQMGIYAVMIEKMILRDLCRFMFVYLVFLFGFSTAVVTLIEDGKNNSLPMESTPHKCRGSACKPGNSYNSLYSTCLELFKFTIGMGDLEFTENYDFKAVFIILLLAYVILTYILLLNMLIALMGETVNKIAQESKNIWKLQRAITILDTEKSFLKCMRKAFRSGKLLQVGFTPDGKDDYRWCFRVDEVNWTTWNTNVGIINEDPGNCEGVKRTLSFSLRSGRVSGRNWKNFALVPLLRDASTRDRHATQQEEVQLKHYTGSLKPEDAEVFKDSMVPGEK

For `C[C@H](C(=O)NC[C@H](COC(=O)C(C)(C)C)Cc1ccccc1)c1ccc(NS(C)(=O)=O)c(F)c1` [6-5, N-[(2R)-2-Benzyl-3-(pivaloyloxy)propyl]-(2S)-2-[3-fluoro-4-(methylsulfonylamino)phenyl]propionamide], the melting point lay in the range of 40 to 42 °C. Besides, on rat VR1 [1] (setting [3]), the Ki was found to be 43.4 nM. At rat VR1 [2], this compound showed a Ki of 8.55 nM.
`C[C@@H](NC(=S)N[C@@H](COC(=O)C(C)(C)C)Cc1ccccc1)c1ccc(NS(C)(=O)=O)cc1` [19-13, N-[(2R)-3-phenyl-1-pivaloyloxy-2-propyl]-N′-[(R)-α-methyl-4-(methylsulfonylamino)benzy]thiourea] registered a melting point of 59 to 61 °C. The compound further showed a Ki on rat VR1 [1] of 420 nM. This compound gave an inhibition constant Ki on rat VR1 [2] of 193 nM.
In turn, `CCC(NC(=S)NCc1ccc(C(C)(C)C)cc1)c1ccc(NS(C)(=O)=O)c(F)c1` (stereo not drawn) [20-12, N-(4-t-Butylbenzyl)-N′-{1-[4-(methylsulfonylamino)-3-fluorophenyl]propyl}thiourea] came in with a melting point of 85 °C. On rat VR1 [1] (setting [3]), the Ki was determined as 230 nM. Also, on rat VR1 [2], affinity was put at a Ki of 54.3 nM.
For `CC(C(=O)NCC(COC(=O)C(C)(C)C)Cc1ccc(C(C)(C)C)cc1)c1ccc(NS(C)(=O)=O)cc1` (stereo not drawn) [5-2, N-[2-(4-t-Butylbenzyl)-3-pivaloyloxypropyl]-2-[4-(methylsulfonylamino)phenyl]propionamide] the same measures were 97 to 100 °C, 55.2 nM and 52 nM.
The compound `C[C@@H](NC(=S)NC[C@@H](COC(=O)C(C)(C)C)Cc1ccc(C(C)(C)C)cc1)c1ccc(NS(C)(=O)=O)cc1` [18-12, N-[(2S)-2-(4-tert-Butylbenzyl)-3-(pivaloyloxy)propyl]-N′-{(1R)-1-[4-(methylsulfonylamino)phenyl]ethyl}thiourea] registered a melting point of 88 to 90 °C. In addition, on rat VR1 [1], the affinity corresponds to a Ki of 8.09 nM. The compound further registered a Ki on rat VR1 [2] of 30.6 nM.
In turn, `COC(=O)c1cc(C(C)C(=O)NCc2ccc(C(C)(C)C)cc2)ccc1NS(C)(=O)=O` (stereo not drawn) [1-59, N-(4-tert-Butylbenzyl)-2-[3-(methoxycarbonyl)-4-(methylsulfonylamino)phenyl]propionamide] displayed a melting point of 142 to 144 °C. At rat VR1 [1] (setting [3]), the Ki was 1610 nM. Besides, the Ki on rat VR1 [2] worked out at 951 nM.
Regarding `COC(=O)c1cc(C(C)NC(=S)NCc2ccc(C(C)(C)C)cc2)ccc1NS(C)(=O)=O` (stereo not drawn) [15-4, N-(4-t-Butylbenzyl)-N′-{1-[3-(methoxycarbonyl)-4-(methylsulfonylamino)phenyl]ethyl}thiourea], the melting point was 132 to 135 °C. This compound also came in with a Ki on rat VR1 [1] of 163 nM. On rat VR1 [2], this compound had a Ki of 65.8 nM.
`Cc1ccc(CCCNC(=O)C2(c3ccc(NS(C)(=O)=O)cc3)CC2)cc1C` [12-4, N-[3-(3,4-Dimethylphenyl)propyl]-1-[4-(methylsulfonylamino)phenyl]cyclopropanecarboxamide] yielded a melting point of 127 to 128 °C. On rat VR1 [1], affinity was put at a Ki of 1740 nM. On rat VR1 [2], this compound came in with an inhibitory constant (Ki) of 1100 nM.
Taken in the same sequence, the figures for `CC(C(=O)NCc1ccc(Cl)cc1)c1ccc(NS(C)(=O)=O)cc1` (stereo not drawn) [2-8, N-(4-Chlorobenzyl)-2-[4-(methylsulfonylamino)phenyl]propionamide] were 164 °C, 3500 nM and 1090 nM.
For `C[C@@H](NC(=S)NCC(COC(=O)C(C)(C)C)Cc1ccc(C(C)(C)C)cc1)c1ccc(NS(C)(=O)=O)cc1` (stereo partly drawn) [18-10, N-[2-(4-tert-Butylbenzyl)-3-(pivaloyloxy)propyl]-N′-{(1R)-1-[4-(methylsulfonylamino)phenyl]ethyl}thiourea] the same measures were 88 to 90 °C, 9.95 nM and 23.9 nM.
Regarding `COc1cc(C(C)(C)NC(=S)NCc2ccc(C(C)(C)C)cc2)ccc1NS(C)(=O)=O` [21-9, N-(4-t-Butylbenzyl)-N′-{1-methyl-1-[3-methoxy-4-(methylsulfonylamino)phenyl]ethyl}thiourea], the melting point is 148 to 150 °C. The Ki on rat VR1 [1] (setting [3]) was found to be 2890 nM. In addition, at rat VR1 [2], the Ki worked out at 663 nM.
For the compound `Cc1ccc(C(C)CC(=O)NC(C)c2ccc(NS(C)(=O)=O)c(F)c2)cc1C` (stereo not drawn) [24-8, N-{1-[3-Fluoro-4-(methylsulfonylamino)phenyl]ethyl}-3-(3,4-dimethylphenyl)butanamide], the melting point was 152 to 154 °C. For the same compound, at rat VR1 [1], the Ki was determined as 3530 nM. For the same compound, the Ki on rat VR1 [2] was determined as 988 nM.
For `Cc1ccc(CC(CNC(=S)NC(C)c2ccc(NS(C)(=O)=O)c(F)c2)COC(=O)C(C)(C)C)cc1C` (stereo not drawn) [18-13, N-[2-(3,4-Dimethylbenzyl)-3-(pivaloyloxy)propyl]-N′-{1-[3-fluoro-4-(methylsulfonylamino)phenyl]ethyl}thiourea] the same measures were 73 °C, 37 nM and 7.09 nM.
Taken in the same sequence, the figures for `Cc1ccc(CCCNC(=O)C(C)(C)c2ccc(NS(C)(=O)=O)cc2)cc1C` [9-4, N-[3-(3,4-Dimethylphenyl)propyl]-2-[4-(methylsulfonylamino)phenyl]-2-methylpropionamide] were 138 to 139 °C, 1700 nM and 573 nM.
`Cc1ccc(CC(CNC(=O)C(C)c2ccc(NS(C)(=O)=O)c(F)c2)COC(=O)C(C)(C)C)cc1C` (stereo not drawn) [5-3, 2-[3-Fluoro-4-(methylsulfonylamino)phenyl]-N-[2-(3,4-dimethylbenzyl)-3-pivaloyloxypropyl]propionamide] registered a melting point of 46 to 48 °C. For the same compound, at rat VR1 [1] (setting [3]), the inhibition constant (Ki) amounted to 33.1 nM. The compound further displayed a Ki at rat VR1 [2] of 10.8 nM.
Take `CC(C(=O)NCc1ccc(Cl)c(Cl)c1)c1ccc(NS(C)(=O)=O)c(Cl)c1` (stereo not drawn) [4-5, N-(3,4-Dichlorobenzyl)-2-[3-chloro-4-(methylsulfonylamino)phenyl]propionamide]: the melting point lay in the range of 129 to 130 °C. The compound also returned a Ki at rat VR1 [1] of 289 nM. The compound also displayed a Ki on rat VR1 [2] of 176 nM.
Compound `COc1cc(C2(C(=O)NCC(COC(=O)C(C)(C)C)Cc3ccc(C)c(C)c3)CC2)ccc1NS(C)(=O)=O` (stereo not drawn) [12-3, N-[2-(3,4-Dimethylbenzyl)-3-pivaloyloxypropyl]-1-[3-methoxy-4-(methylsulfonylamino)phenyl]cyclopropanecarboxamide] displayed a melting point of 66 to 68 °C. Moreover, the Ki at rat VR1 [1] (setting [3]) was 238 nM. The compound further displayed a Ki at rat VR1 [2] of 117 nM.
For `CC(NC(=O)CCc1ccc(C(C)(C)C)cc1)c1ccc(NS(C)(=O)=O)c(F)c1` (stereo not drawn) [24-2, N-{1-[3-Fluoro-4-(methylsulfonylamino)phenyl]ethyl}-3-(4-tert-butylphenyl)propanamide] the same measures were 152 to 154 °C, 376 nM and 103 nM.
Taken in the same sequence, the figures for `COc1cc(C(C)C(=O)NCc2ccc(C(C)(C)C)cc2)ccc1NS(C)(=O)=O` (stereo not drawn) [1-65, N-(4-tert-Butylbenzyl)-2-[3-methoxy-4-(methylsulfonylamino)phenyl]propionamide] were 74 to 76 °C, 536 nM and 232 nM.
`CC(C(=O)NCc1ccc(Cl)c(Cl)c1)c1ccc(NS(C)(=O)=O)c(Br)c1` (stereo not drawn) [4-6, N-(3,4-Dichlorobenzyl)-2-[3-bromo-4-(methylsulfonylamino)phenyl]propionamide] returned a melting point of 161 to 162 °C. The affinity on rat VR1 [1] corresponds to a Ki of 226 nM. Further, the Ki on rat VR1 [2] is 89.6 nM.
`CC(C(=O)NCc1ccc(Cl)c(Cl)c1)c1ccc(NS(C)(=O)=O)c(F)c1` (stereo not drawn) [4-4, N-(3,4-Dichlorobenzyl)-2-[3-fluoro-4-(methylsulfonylamino)phenyl]propionamide] registered a melting point of 130 to 133 °C. Moreover, on rat VR1 [1] (setting [3]), the Ki amounted to 199 nM. This compound registered a Ki at rat VR1 [2] of 115 nM.
For `CC(C(=O)NCc1ccc(C(C)(C)C)cc1)c1ccc(NS(C)(=O)=O)c(C#N)c1` (stereo not drawn) [1-56, N-(4-tert-Butylbenzyl)-2-[3-cyano-4-(methylsulfonylamino)phenyl]propionamide] the same measures were 102 to 105 °C, 344 nM and 467 nM.
For `CC(C(=O)NCc1ccc(C(C)(C)C)cc1)c1ccc(NS(C)(=O)=O)c(I)c1` (stereo not drawn) [1-54, N-(4-tert-Butylbenzyl)-2-[3-iodo-4-(methylsulfonylamino)phenyl]propionamide] the same measures were 71 °C, 23.3 nM and 29.9 nM.
For `C[C@@H](NC(=S)NC[C@@H](COC(=O)C(C)(C)C)Cc1ccccc1)c1ccc(NS(C)(=O)=O)cc1` [18-2, N-[(2S)-2-Benzyl-3-(pivaloyloxy)propyl]-N′-{(1R)-1-[4-(methylsulfonylamino)phenyl]ethyl}thiourea], the melting point is 58 to 62 °C. The compound further registered a Ki at rat VR1 [1] of 19.4 nM. The compound further showed an inhibition constant (Ki) at rat VR1 [2] of 89 nM.
Compound `C[C@H](C(=O)N[C@@H](COC(=O)C(C)(C)C)Cc1ccccc1)c1ccc(NS(C)(=O)=O)c(F)c1` [6-1, N—[(R)-1-Benzyl-2-(pivaloyloxy)ethyl]-(S)-2-[3-fluoro-4-(methylsulfonylamino)phenyl]propionamide] came in with a melting point of 115 °C. Besides, the Ki at rat VR1 [1] (setting [3]) was found to be 12800 nM. At rat VR1 [2], this compound came in with a Ki of 1470 nM.
Taken in the same sequence, the figures for `C[C@H](C(=O)NC[C@@H](COC(=O)C(C)(C)C)Cc1ccc(C(C)(C)C)cc1)c1ccc(NS(C)(=O)=O)c(Cl)c1` [6-14, N-[(2S)-2-(4-t-Butylbenzyl)-3-(pivaloyloxy)propyl]-(2S)-2-[3-chloro-4-(methylsulfonylamino)phenyl]propionamide] were 55 to 57 °C, 3.29 nM and 12.1 nM.
The compound `CC(C(=O)NCc1ccc(Cl)c(Cl)c1)c1ccc(NS(C)(=O)=O)cc1` (stereo not drawn) [2-9, N-(3,4-Dichlorobenzyl)-2-[4-(methylsulfonylamino)phenyl]propionamide] displayed a melting point of 130 °C. For the same compound, the Ki at rat VR1 [1] worked out at 1650 nM. This compound also displayed a Ki on rat VR1 [2] of 253 nM.
